Assay results taken from patent publication US20130225430A1, “METHODS AND COMPOSITIONS FOR TREATMENT OF TOX-3 AND TFF-1 MEDIATED CANCER PATHOGENESIS” (CEDARS-SINAI MEDICAL CENTER, priority 2012, published 2013).

Legend:
[1] = tested on: ERα binding to ERE I, ERE II, and ERE III; settings: reported ER ChIP studies (ref. 46); cited from earlier work
[2] = tested on: TFF1 gene expression in MCF-7 cells; assay: TFF1 expression by quantitative RT-PCR in MCF-7 cells transfected with TOX3 or vector control; settings: for Effect on TFF1 expression compared to untreated control cells: MCF7 cells, normal culture conditions (not estrogen depleted); for TOX3 induction of TFF1 expression: resistant or sensitive to the drug: TOX3 transfected MCF7 cells, estrogen depleted medium, 36 hours
Protocol: Measurement of TFF1 induction by TOX3. […] MCF7 cells were transfected with a TOX3 expression vector or vector control, switched to estrogen depleted-medium after 8 hours in the presence or absence of the indicated drug, and analyzed by quantitative RT-PCR for TFF1 gene expression after an additional 36 hours in culture.

SMILES | ER binding at ERE I, II, and III sites upstream of TFF1 and TMPRSS3 [1] | Effect on TFF1 expression compared to untreated control cells [2] | TOX3 induction of TFF1 expression: resistant or sensitive to the drug [2]
C[C@]12CC[C@@H]3c4ccc(O)cc4C[C@@H](CCCCCCCCC[S+]([O-])CCCC(F)(F)C(F)(F)F)[C@H]3[C@@H]1CC[C@@H]2O (stereo partly drawn) [fulvestrant] | residual binding | decrease | sensitive
CC/C(=C(\c1ccccc1)c1ccc(OCCN(C)C)cc1)c1ccccc1 [tamoxifen] | residual binding | decrease | resistant
